Assay results reported in paper PMC11289455 (Scientific Reports, 2024).
Like-named read-outs stand apart in the source and are kept apart here.

What was measured:
[1] = target: T1, PDE3A (phosphodiesterase 3A) (Homo sapiens, UniProt Q14432); test: SafetyScreen44: PDE3A; type: biochemical
T1 construct: purchased Eurofins Cerep SafetyScreen44

[2] = target: T2, 5-HT1A (serotonin 1A receptor) (Homo sapiens, UniProt P08908); test: SafetyScreen44: 5-HT1A; type: binding
T2 construct: purchased Eurofins Cerep SafetyScreen44
T2 sequence (P08908 1-422): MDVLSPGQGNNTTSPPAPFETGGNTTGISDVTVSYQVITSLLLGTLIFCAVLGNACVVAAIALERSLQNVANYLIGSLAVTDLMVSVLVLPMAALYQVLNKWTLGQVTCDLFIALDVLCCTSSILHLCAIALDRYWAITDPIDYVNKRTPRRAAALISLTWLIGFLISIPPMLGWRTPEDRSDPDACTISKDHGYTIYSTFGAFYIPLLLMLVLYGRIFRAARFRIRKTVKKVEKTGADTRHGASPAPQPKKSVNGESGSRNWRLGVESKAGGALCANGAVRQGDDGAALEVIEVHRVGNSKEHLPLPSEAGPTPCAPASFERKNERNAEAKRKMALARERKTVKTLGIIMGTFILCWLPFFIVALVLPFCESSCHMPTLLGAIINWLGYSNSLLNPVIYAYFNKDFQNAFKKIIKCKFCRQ

[3] = target: T3, β1 (beta-1 adrenergic receptor) (Homo sapiens, UniProt P08588); test: SafetyScreen44: β1; type: binding
T3 construct: purchased Eurofins Cerep SafetyScreen44
T3 sequence (P08588 whole entry): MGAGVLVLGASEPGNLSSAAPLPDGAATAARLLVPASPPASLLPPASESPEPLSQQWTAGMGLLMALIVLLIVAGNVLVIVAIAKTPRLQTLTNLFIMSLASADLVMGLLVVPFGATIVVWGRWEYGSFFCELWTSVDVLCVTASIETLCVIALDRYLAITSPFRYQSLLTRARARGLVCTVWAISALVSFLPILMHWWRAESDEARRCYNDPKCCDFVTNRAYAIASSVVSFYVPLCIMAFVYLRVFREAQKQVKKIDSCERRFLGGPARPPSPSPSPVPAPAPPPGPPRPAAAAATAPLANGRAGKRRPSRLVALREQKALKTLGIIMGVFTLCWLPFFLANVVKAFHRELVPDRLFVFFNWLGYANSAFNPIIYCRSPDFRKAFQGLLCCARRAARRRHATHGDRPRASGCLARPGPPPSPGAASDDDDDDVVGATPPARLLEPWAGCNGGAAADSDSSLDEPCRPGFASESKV

[4] = target: T4, D2S (short dopamine D2 receptor) (Homo sapiens, UniProt P14416); test: SafetyScreen44: D2S; type: binding
T4 construct: purchased Eurofins Cerep SafetyScreen44
T4 sequence (P14416 1-414 isoform P14416-2): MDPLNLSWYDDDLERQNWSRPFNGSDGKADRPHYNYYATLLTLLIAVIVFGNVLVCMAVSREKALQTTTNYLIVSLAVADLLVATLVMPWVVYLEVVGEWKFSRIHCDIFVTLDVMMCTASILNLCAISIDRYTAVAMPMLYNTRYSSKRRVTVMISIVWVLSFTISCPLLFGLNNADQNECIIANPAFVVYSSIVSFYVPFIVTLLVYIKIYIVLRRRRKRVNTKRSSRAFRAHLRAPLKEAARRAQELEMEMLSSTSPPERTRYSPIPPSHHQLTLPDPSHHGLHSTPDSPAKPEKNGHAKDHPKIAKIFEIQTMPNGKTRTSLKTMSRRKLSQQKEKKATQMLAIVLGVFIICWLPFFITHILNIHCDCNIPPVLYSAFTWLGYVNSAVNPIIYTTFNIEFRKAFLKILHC

[5] = target: T5, Lck kinase (lymphocyte-specific protein tyrosine kinase) (Homo sapiens, UniProt P06239); test: SafetyScreen44: Lck kinase; type: biochemical
T5 construct: purchased Eurofins Cerep SafetyScreen44
T5 sequence (P06239 whole entry): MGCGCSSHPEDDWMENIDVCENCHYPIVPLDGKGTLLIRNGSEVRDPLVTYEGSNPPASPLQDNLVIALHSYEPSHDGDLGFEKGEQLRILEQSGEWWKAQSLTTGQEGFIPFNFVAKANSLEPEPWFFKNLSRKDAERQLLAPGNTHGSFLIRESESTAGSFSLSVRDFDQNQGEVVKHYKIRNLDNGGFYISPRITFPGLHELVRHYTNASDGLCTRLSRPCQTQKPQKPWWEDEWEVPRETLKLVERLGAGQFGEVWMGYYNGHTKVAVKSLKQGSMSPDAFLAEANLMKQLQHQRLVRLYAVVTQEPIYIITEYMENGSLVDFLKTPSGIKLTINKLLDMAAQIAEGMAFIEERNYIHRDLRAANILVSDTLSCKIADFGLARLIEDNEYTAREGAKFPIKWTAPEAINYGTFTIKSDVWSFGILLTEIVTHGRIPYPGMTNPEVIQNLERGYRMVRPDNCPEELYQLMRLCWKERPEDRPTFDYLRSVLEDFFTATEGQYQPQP

[6] = target: T6, PDE4D2 (cAMP-specific 3’,5’-cyclic phosphodiesterase 4D2) (Homo sapiens, UniProt Q08499); test: SafetyScreen44: PDE4D2; type: biochemical
T6 construct: purchased Eurofins Cerep SafetyScreen44
T6 sequence (Q08499 303-809 limits assumed): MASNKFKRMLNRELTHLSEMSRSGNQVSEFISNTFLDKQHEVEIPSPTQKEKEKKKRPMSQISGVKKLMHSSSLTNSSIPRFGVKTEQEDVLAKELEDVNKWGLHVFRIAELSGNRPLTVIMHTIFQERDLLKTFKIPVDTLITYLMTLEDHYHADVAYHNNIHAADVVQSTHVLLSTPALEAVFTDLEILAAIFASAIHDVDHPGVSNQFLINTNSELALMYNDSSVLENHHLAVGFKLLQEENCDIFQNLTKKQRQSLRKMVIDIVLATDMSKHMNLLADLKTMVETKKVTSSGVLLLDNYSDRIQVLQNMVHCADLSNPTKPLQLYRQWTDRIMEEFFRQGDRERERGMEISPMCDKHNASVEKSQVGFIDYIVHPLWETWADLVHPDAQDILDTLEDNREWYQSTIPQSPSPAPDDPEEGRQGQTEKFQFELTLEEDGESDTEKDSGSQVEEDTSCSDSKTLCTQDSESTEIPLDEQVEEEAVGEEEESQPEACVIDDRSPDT

[7] = target: T7, COX2 (Homo sapiens, UniProt P35354); test: SafetyScreen44: COX2; type: biochemical
T7 construct: purchased Eurofins Cerep SafetyScreen44
T7 sequence (P35354 18-604): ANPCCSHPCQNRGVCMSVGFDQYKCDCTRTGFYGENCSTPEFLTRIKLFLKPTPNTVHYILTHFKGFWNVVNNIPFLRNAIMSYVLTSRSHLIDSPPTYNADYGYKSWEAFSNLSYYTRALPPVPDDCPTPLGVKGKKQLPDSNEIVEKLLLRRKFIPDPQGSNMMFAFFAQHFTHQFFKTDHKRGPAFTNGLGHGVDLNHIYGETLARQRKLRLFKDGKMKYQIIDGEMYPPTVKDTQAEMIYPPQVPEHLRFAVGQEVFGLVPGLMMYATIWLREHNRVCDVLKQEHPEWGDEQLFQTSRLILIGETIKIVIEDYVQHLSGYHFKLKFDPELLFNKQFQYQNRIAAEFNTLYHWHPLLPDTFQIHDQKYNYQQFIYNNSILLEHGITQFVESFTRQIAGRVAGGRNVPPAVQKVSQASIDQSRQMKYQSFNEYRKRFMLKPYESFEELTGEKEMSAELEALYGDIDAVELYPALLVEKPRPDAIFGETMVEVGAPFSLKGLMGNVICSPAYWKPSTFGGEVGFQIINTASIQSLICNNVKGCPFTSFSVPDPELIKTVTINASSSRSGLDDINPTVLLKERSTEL

[8] = target: T8, AR (androgen receptor) (Homo sapiens, UniProt P10275, T878A); test: SafetyScreen44: AR; type: binding
T8 construct: purchased Eurofins Cerep SafetyScreen44
T8 sequence (P10275 1-920 T878A): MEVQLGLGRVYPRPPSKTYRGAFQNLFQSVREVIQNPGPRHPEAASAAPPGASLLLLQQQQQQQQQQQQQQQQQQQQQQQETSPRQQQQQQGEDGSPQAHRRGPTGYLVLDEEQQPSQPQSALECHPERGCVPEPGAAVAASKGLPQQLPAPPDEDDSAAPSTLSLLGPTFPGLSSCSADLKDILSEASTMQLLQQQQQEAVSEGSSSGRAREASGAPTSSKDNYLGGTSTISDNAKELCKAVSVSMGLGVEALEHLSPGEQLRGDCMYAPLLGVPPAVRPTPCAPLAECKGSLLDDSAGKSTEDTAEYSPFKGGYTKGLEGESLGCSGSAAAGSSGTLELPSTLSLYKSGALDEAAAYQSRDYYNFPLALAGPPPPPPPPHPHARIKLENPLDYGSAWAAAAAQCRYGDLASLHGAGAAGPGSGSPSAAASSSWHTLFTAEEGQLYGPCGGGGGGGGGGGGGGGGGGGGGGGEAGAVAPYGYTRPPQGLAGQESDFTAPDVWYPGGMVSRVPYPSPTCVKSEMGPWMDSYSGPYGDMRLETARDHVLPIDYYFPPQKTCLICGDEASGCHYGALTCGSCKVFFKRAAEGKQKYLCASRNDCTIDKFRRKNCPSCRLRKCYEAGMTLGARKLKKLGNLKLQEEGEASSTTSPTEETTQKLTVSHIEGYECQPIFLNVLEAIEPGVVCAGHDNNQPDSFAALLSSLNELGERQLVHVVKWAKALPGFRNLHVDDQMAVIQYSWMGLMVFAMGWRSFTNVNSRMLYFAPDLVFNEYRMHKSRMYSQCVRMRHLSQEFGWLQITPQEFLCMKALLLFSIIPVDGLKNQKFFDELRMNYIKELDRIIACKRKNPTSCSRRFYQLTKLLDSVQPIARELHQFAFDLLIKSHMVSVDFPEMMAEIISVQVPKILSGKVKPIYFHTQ

T1 sequence (Q14432 whole entry): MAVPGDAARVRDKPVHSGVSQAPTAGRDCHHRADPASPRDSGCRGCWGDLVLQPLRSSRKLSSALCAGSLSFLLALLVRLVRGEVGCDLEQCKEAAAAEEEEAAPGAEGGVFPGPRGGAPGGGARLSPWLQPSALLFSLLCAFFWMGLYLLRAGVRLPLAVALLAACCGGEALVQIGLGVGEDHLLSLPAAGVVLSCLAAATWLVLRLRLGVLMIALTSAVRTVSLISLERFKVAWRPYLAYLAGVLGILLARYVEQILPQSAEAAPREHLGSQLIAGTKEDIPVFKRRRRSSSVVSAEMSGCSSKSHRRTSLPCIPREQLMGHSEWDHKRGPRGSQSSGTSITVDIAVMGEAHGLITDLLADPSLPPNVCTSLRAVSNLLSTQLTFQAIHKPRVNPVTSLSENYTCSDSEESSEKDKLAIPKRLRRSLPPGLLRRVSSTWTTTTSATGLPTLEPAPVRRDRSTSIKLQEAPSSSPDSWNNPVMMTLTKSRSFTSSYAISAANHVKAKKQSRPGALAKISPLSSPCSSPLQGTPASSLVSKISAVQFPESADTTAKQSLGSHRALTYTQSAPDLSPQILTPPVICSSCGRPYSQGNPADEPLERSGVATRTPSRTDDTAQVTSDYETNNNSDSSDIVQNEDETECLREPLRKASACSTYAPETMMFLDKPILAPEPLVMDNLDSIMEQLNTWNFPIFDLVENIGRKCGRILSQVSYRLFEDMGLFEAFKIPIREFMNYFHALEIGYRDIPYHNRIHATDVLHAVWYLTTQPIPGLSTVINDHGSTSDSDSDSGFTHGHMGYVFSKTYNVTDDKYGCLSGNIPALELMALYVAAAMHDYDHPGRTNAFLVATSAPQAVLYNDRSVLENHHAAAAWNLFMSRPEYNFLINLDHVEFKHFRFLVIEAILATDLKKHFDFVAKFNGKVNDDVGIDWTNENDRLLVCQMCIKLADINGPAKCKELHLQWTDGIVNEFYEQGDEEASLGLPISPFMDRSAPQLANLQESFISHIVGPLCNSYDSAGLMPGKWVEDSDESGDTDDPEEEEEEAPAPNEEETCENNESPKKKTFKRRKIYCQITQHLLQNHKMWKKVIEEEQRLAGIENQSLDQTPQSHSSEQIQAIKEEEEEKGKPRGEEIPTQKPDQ

CC(=O)NCCCC[C@@H]1NC(=O)[C@H](Cc2c[nH]c3c(C)cccc23)NC(=O)[C@H]([C@@H](C)O)NC(=O)[C@H](CC(N)=O)NC(=O)[C@@H](NC(C)=O)C(C)(C)SSC(C)(C)[C@@H](C(=O)N[C@@H](Cc2ccc(OCCN)cc2)C(=O)N[C@@H](Cc2ccc3ccccc3c2)C(=O)NC2(C(=O)N[C@@H](CCC(=O)O)C(=O)N[C@@H](CC(N)=O)C(=O)N[C@@H](Cc3cccnc3)C(=O)N(C)CC(N)=O)CCOCC2)NC1=O [JNJ-77242113, S^3,1,S^3,6-cyclo[N-acetyl-3-sulfanyl-L-valyl-L-asparaginyl-L-threonyl-7-methyl-L-tryptophyl-N^6-acetyl-L-lysyl-3-sulfanyl-L-valyl-O-(2-aminoethyl)-L-tyrosyl-3-(naphthalen-2-yl)-L-alanyl-4-aminooxan-4-carbonyl-L-α-glutamyl-L-asparaginyl-3-(pyridin-3-yl)-L-alanyl-N^2-methylglycinamide]]
inhibition at 10 µM ([1]; 1st run, read-out: Percent inhibition of control ligand binding, PDE3A, 1st run): -30.6% | inhibition at 10 µM ([1]; 2nd run, read-out: Percent inhibition of control ligand binding, PDE3A, 2nd run): -44.7% | inhibition at 10 µM ([1]; mean of 2 runs, read-out: Percent inhibition of control ligand binding, PDE3A, Mean): -37.6% | inhibition at 10 µM ([2]; 1st run, read-out: Percent inhibition of control ligand binding, 5-HT1A, 1st run): -5.6% | inhibition at 10 µM ([2]; 2nd run, read-out: Percent inhibition of control ligand binding, 5-HT1A, 2nd run): 2.8% | inhibition at 10 µM ([2]; mean of 2 runs, read-out: Percent inhibition of control ligand binding, 5-HT1A, Mean): -1.4% | inhibition at 10 µM ([3]; 1st run, read-out: Percent inhibition of control ligand binding, β1, 1st run): -5.1% | inhibition at 10 µM ([3]; 2nd run, read-out: Percent inhibition of control ligand binding, β1, 2nd run): 7.7% | inhibition at 10 µM ([3]; mean of 2 runs, read-out: Percent inhibition of control ligand binding, β1, Mean): 1.3% | inhibition at 10 µM ([4]; 1st run, read-out: Percent inhibition of control ligand binding, D2S, 1st run): -6.6% | inhibition at 10 µM ([4]; 2nd run, read-out: Percent inhibition of control ligand binding, D2S, 2nd run): -6.6% | inhibition at 10 µM ([4]; mean of 2 runs, read-out: Percent inhibition of control ligand binding, D2S, Mean): -6.6% | inhibition at 10 µM ([5]; 1st run, read-out: Percent inhibition of control ligand binding, Lck kinase, 1st run): 8.6% | inhibition at 10 µM ([5]; 2nd run, read-out: Percent inhibition of control ligand binding, Lck kinase, 2nd run): -2.3% | inhibition at 10 µM ([5]; mean of 2 runs, read-out: Percent inhibition of control ligand binding, Lck kinase, Mean): 3.1% | inhibition at 10 µM ([6]; 1st run, read-out: Percent inhibition of control ligand binding, PDE4D2, 1st run): -22.6% | inhibition at 10 µM ([6]; 2nd run, read-out: Percent inhibition of control ligand binding, PDE4D2, 2nd run): -11.7% | inhibition at 10 µM ([6]; mean of 2 runs, read-out: Percent inhibition of control ligand binding, PDE4D2, Mean): -17.1% | inhibition at 10 µM ([7]; 1st run, read-out: Percent inhibition of control ligand binding, COX2, 1st run): 7.8% | inhibition at 10 µM ([7]; 2nd run, read-out: Percent inhibition of control ligand binding, COX2, 2nd run): -0.9% | inhibition at 10 µM ([7]; mean of 2 runs, read-out: Percent inhibition of control ligand binding, COX2, Mean): 3.4% | inhibition at 10 µM ([8]; 1st run, read-out: Percent inhibition of control ligand binding, AR, 1st run): -5.6% | inhibition at 10 µM ([8]; 2nd run, read-out: Percent inhibition of control ligand binding, AR, 2nd run): -3.7% | inhibition at 10 µM ([8]; mean of 2 runs, read-out: Percent inhibition of control ligand binding, AR, Mean): -4.7%
